# Target: Complement C3 (Homo sapiens, UniProt P01024)
# Assay: Inhibitory concentration for human complement component C3 activation
# Sequence of Complement C3 (P01024 23-667 limits assumed): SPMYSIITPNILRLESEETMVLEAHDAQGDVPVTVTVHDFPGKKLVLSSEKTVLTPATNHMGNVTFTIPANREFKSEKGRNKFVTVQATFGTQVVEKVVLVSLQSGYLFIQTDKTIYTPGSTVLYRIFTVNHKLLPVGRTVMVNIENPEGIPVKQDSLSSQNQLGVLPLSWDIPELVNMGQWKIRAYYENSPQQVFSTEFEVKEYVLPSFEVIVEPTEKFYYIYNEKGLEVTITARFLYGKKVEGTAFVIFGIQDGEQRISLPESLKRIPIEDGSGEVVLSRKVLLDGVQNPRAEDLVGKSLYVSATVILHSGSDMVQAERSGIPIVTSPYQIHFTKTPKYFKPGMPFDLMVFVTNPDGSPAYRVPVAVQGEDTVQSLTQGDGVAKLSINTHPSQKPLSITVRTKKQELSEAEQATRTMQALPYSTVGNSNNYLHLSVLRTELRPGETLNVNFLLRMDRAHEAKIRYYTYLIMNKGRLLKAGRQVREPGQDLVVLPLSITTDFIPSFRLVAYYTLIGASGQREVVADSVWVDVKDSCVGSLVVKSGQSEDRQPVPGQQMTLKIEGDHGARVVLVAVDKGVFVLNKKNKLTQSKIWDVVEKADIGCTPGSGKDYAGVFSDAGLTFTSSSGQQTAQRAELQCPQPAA
# Sequence of Complement C3 (P01024 672-1663 limits assumed): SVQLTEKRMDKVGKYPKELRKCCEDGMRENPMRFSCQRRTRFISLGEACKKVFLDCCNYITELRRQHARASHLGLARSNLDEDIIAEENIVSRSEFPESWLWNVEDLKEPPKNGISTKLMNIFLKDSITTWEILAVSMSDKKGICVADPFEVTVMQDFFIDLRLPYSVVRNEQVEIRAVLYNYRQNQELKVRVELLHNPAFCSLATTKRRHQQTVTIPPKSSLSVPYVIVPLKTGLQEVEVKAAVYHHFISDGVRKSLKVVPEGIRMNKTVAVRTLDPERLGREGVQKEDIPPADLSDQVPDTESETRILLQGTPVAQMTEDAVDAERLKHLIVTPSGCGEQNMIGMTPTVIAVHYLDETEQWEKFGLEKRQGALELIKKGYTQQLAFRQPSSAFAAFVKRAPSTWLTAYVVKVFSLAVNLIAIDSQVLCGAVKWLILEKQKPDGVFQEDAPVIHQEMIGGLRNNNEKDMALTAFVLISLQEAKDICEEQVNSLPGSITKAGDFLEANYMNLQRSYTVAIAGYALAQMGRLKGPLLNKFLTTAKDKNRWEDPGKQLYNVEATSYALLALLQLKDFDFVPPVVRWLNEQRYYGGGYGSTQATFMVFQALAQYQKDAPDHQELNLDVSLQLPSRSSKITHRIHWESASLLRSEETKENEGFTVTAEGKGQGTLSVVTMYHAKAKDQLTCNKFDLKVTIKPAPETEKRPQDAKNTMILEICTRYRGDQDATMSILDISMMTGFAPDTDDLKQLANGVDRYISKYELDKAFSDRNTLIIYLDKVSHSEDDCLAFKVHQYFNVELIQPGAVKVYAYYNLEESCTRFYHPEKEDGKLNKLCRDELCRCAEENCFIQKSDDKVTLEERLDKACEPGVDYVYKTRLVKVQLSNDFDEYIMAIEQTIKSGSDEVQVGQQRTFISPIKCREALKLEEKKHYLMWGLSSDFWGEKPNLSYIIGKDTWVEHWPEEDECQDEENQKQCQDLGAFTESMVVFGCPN
row,SMILES,IC50 [µM]
1,CC[C@H](C)[C@H](NC(C)=O)C(=O)N[C@H]1CSSC[C@@H](C(=O)N[C@H](C(N)=O)[C@@H](C)O)NC(=O)[C@H](CCCN=C(N)N)NC(=O)[C@H](Cc2c[nH]cn2)NC(=O)[C@H](C)NC(=O)CNC(=O)[C@H](Cc2c[nH]c3ccccc23)NC(=O)[C@H](CC(=O)O)NC(=O)[C@H](CCC(N)=O)NC(=O)[C@H](C2Cc3ccccc3C2)NC(=O)[C@H](C(C)C)NC1=O,1.4
2,CC[C@H](C)[C@H](NC(=O)[C@@H]1CSSC[C@H](NC(=O)[C@@H](NC(C)=O)[C@@H](C)CC)C(=O)N[C@@H](C(C)C)C(=O)N[C@H](Cc2c[nH]c3ccccc23)C(=O)N[C@@H](CCC(N)=O)C(=O)N[C@@H](CC(=O)O)C(=O)N[C@@H](Cc2c[nH]c3ccccc23)C(=O)NCC(=O)N[C@@H](C)C(=O)N[C@@H](Cc2c[nH]cn2)C(=O)N[C@@H](CCCN=C(N)N)C(=O)N1)C(N)=O,> 1000
3,CC[C@H](C)[C@H](NC(C)=O)C(=O)N[C@H]1CSSC[C@@H](C(N)=O)NC(=O)[C@H](CCCN=C(N)N)NC(=O)[C@H](Cc2c[nH]cn2)NC(=O)[C@H](Cc2c[nH]cn2)NC(=O)CNC(=O)[C@@H](Cc2c[nH]c3ccccc23)NC(=O)[C@H](CC(=O)O)NC(=O)[C@H](CCC(N)=O)NC(=O)[C@H](C(C)C)NC(=O)[C@H](C(C)C)NC1=O,> 1000
